According to US11478471B2, “Methods and compositions for treating diabetes, metabolic syndrome and other conditions” (priority 2005, dated 2022):
Converted amounts (≈) assume the structure as drawn. Like-named read-outs stand apart in the source and are kept apart here.

Tests used:
[1] = system: plasma corticosterone; experiment: Plasma corticosterone in rats after oral dosing (ELISA); format: in vivo, Sprague Dawley rats; conditions: for Corticosteroid Levels (mean ± SEM): 4 h after gavage
Protocol: To generate the results shown in FIG. 1, five groups (eight per group) of rats were used. The rats were maintained on a 14/10 hour light/dark cycle and allowed free access to food and water. Each rat was dosed (200 mg drug/kg body weight) via a gastric tube. […] All of the rats were dosed between 2.00 and 3.00 pm and were sacrificed four hours later (between 6.00 and 7.00 pm). Plasma was prepared and the concentration of corticosterone determined by an enzyme linked immuno assay (ELISA). In rats, the predominant active glucocorticoid is corticosterone; in humans, the predominant active glucucorticoid is the closely related molecule cortisol.
The rats were maintained and dosed as described above. Plasma was prepared and the concentration of corticosterone in the plasma determined by ELISA.
The rats were maintained as described above; the drugs were suspended in olive oil, and each rat was dosed once via gastric tube to achieve a dose of 200 mg/kg. All of the rats were dosed at a specific time so that all terminations occurred between 6 and 7 pm. […] Following sacrifice, plasma was prepared, and the concentration of corticosterone in the plasma was determined by ELISA. In the same plasma samples, total cholesterol levels were also determined.
In the Table, corticosterone levels (mean±SEM; ng/mL) were determined four hours after oral gavage of the indicated drug (N=10/group). There was a single control group (dosed with vehicle).
Corticosterone levels (mean±SEM; ng/mL) were determined at the indicated times after oral gavage of the indicated drug at 200 mg/kg. […] The means of the vehicle treated groups are used as the time zero control point.

[2] = system: testosterone levels; experiment: Testosterone levels in rats after oral dosing; format: in vivo, Sprague Dawley rats; conditions: for Testosterone levels (mean ± SEM): 4 h after gavage
Description: There was a single control group (dosed with vehicle).
The means of the vehicle treated groups are used as the time zero control point.

[3] = system: Candida albicans; experiment: Antifungal MIC; format: cell-based
[4] = system: Candida glabrata; experiment: Antifungal MIC; format: cell-based; conditions: Nakaseomyces glabratus, read-out: MIC
[5] = system: Candida guilliermondii; experiment: Antifungal MIC; format: cell-based; conditions: Meyerozyma guilliermondii, DSM11947; DSM strain 11947, 48 h
[6] = system: Candida tropicalis; experiment: Antifungal MIC; format: cell-based; conditions: read-out: MIC
[7] = system: Cryptococcus neoformans; experiment: Antifungal MIC; format: cell-based
[8] = system: Issatchenkia orientalis; experiment: Antifungal MIC; format: cell-based; conditions: Pichia kudriavzevii, read-out: MIC
[9] = Toxicokinetics in the 28 day dog study of DIO-902 (with racemic ketoconazole group a); conditions: beagle, plasma; for AUC(0-t): AUC(0-12); for concentration at 0 h / concentration at 1 h / concentration at 2 h / concentration at 4 h / concentration at 8 h / concentration at 12 h: Drug concentration in plasma;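 as to all read-outs here: beagle dogs dosed orally once daily within a 28-day GLP study, 3 animals per sex per group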
[10] = female, po, 2 mg/kg, dogs, 2 mg/kg oral, day 1, F
[11] = female, po, 2 mg/kg, dogs, 2 mg/kg oral, day 28, F
[12] = female, po, 6.5 mg/kg, dogs, 6.5 mg/kg oral, day 28, F
[13] = female, po, 6.5 mg/kg, dogs, 6.5 mg/kg oral, day 1, F

## CC(=O)N1CCN(c2ccc(OC[C@@H]3CO[C@@](Cn4ccnc4)(c4ccc(Cl)cc4Cl)O3)cc2)CC1 [DIO-902, 2S,4R cis-1-acetyl-4-[4-[[2-(2,4-dichlorophenyl)-2-(1H-imidazol-1-ylmethyl)-1,3-dioxolan-4-yl]methoxyl]phenyl]piperazine]
[1]; single oral 50 mg/kg
  Corticosteroid Levels (mean ± SEM): 186 ± 14.9 ng/mL
[1]; single oral 100 mg/kg
  Corticosteroid Levels (mean ± SEM): 139 ± 10.9 ng/mL
[1]; single oral 200 mg/kg, 4 h
  Corticosteroid Levels (mean ± SEM), time course: 98 ± 10 ng/mL
[1]; single oral 200 mg/kg
  Corticosteroid Levels (mean ± SEM): 100 ± 8.6 ng/mL
[1]; single oral 200 mg/kg, 8 h
  Corticosteroid Levels (mean ± SEM), time course: 116 ± 13 ng/mL
[1]; single oral 200 mg/kg, 12 h
  Corticosteroid Levels (mean ± SEM), time course: 113 ± 8 ng/mL
[1]; single oral 200 mg/kg, 16 h
  Corticosteroid Levels (mean ± SEM), time course: 133 ± 17 ng/mL
[1]; single oral 200 mg/kg, 20 h
  Corticosteroid Levels (mean ± SEM), time course: 136 ± 12 ng/mL
[1]; single oral 200 mg/kg, 24 h
  Corticosteroid Levels (mean ± SEM), time course: 103 ± 14 ng/mL
[1]; single oral 400 mg/kg
  Corticosteroid Levels (mean ± SEM): 84 ± 11.6 ng/mL
[1]; single oral 600 mg/kg
  Corticosteroid Levels (mean ± SEM): 80 ± 7.8 ng/mL
[2]; 200 mg/kg
  time for testosterone levels to return to normal: ≤ 8 h
[2]; single oral 50 mg/kg
  Testosterone levels (mean ± SEM): 2.6 ± 0.7 nmol/L
[2]; single oral 100 mg/kg
  Testosterone levels (mean ± SEM): 0.8 ± 0.3 nmol/L
[2]; single oral 200 mg/kg, 4 h
  Testosterone levels (mean ± SEM), time course: 0.8 ± 0.2 nmol/L
[2]; single oral 200 mg/kg
  Testosterone levels (mean ± SEM): 0.2 ± 0.1 nmol/L
[2]; single oral 200 mg/kg, 8 h
  Testosterone levels (mean ± SEM), time course: 5.9 ± 0.8 nmol/L
[2]; single oral 200 mg/kg, 12 h
  Testosterone levels (mean ± SEM), time course: 3.4 ± 0.5 nmol/L
[2]; single oral 200 mg/kg, 16 h
  Testosterone levels (mean ± SEM), time course: 3.9 ± 0.6 nmol/L
[2]; single oral 200 mg/kg, 20 h
  Testosterone levels (mean ± SEM), time course: 5.2 ± 0.6 nmol/L
[2]; single oral 200 mg/kg, 24 h
  Testosterone levels (mean ± SEM), time course: 4.4 ± 0.7 nmol/L
[2]; single oral 400 mg/kg
  Testosterone levels (mean ± SEM): 0.3 ± 0.1 nmol/L
[2]; single oral 600 mg/kg
  Testosterone levels (mean ± SEM): 0 ± 0 nmol/L
[3]; DSM11225, DSM strain 11225, 48 h, read-out: MIC
  MIC: < 0.015 µg/mL
[3]; DSM11943, DSM strain 11943, 48 h, read-out: MIC
  MIC: < 0.015 µg/mL
[3]; DSM11944, DSM strain 11944, 48 h, read-out: MIC
  MIC: < 0.015 µg/mL
[3]; DSM11945, DSM strain 11945, 48 h, read-out: MIC
  MIC: 0.03 µg/mL (≈ 0.0565 µM)
[3]; DSM11948, DSM strain 11948, 48 h, read-out: MIC
  MIC: < 0.015 µg/mL
[3]; DSM11949, 48 h
  MIC: 0.125 µg/mL (≈ 0.235 µM)
[3]; strain 98-St-00799, 48 h, read-out: MIC
  MIC: < 0.015 µg/mL
[4]; DSM11226, DSM strain 11226, 48 h
  MIC: 0.5 µg/mL (≈ 0.941 µM)
[4]; DSM11950, DSM strain 11950, 48 h
  MIC: 0.25 µg/mL (≈ 0.47 µM)
[5]
  MIC: 0.06 µg/mL (≈ 0.113 µM)
[6]; DSM11951, DSM strain 11951, 48 h
  MIC: 0.06 µg/mL (≈ 0.113 µM)
[6]; DSM11952, DSM strain 11952, 48 h
  MIC: 2 µg/mL (≈ 3.76 µM)
[6]; DSM11953, DSM strain 11953, 48 h
  MIC: 0.06 µg/mL (≈ 0.113 µM)
[7]; DSM11959, DSM strain 11959, 48 h
  MIC: 0.03 µg/mL (≈ 0.0565 µM)
[7]; DSM11960, DSM strain 11960, 48 h
  MIC: 0.125 µg/mL (≈ 0.235 µM)
[8]; DSM11956, DSM strain 11956, 48 h
  MIC: 0.25 µg/mL (≈ 0.47 µM)
[8]; DSM11958, DSM strain 11958, 48 h
  MIC: 1 µg/mL (≈ 1.88 µM)
[9]; both, oral, 20 mg/kg, Tmax values, dogs, 2, 6.5 and 20 mg/kg, Day 1
  Tmax: 1 to 8 h
[9]; both, oral, 20 mg/kg, Tmax values, dogs, 2, 6.5 and 20 mg/kg, Day 28
  Tmax: 1 to 12 h
[9]; both, po, 20 mg/kg/day, dogs, 20 mg/kg/day, day 28
  Cmax: 9940 to 9950 ng/mL
[9]; female, po, 2 mg/kg, dogs, 2 mg/kg oral, day 1, F, n = 1
  AUC(0-t): 2570 ng·h/mL
[9]; female, po, 2 mg/kg, dogs, 2 mg/kg oral, day 28, F, n = 1
  AUC(0-t): 2760 ng·h/mL
[9]; [10]
  Cmax: 450 ng/mL
  concentration at 0 h: < 250 ng/mL
  concentration at 1 h: < 250 ng/mL
  concentration at 2 h: 270 ng/mL
  concentration at 4 h: 280 ng/mL
  concentration at 8 h: < 250 ng/mL
  concentration at 12 h: < 250 ng/mL
[9]; [11]
  Cmax: 750 ng/mL
  concentration at 0 h: < 250 ng/mL
  concentration at 1 h: 290 ng/mL
  concentration at 2 h: 520 ng/mL
  concentration at 4 h: 300 ng/mL
  concentration at 8 h: < 250 ng/mL
  concentration at 12 h: < 250 ng/mL
[9]; female, po, 2 mg/kg, Tmax Range, dogs, 2 mg/kg oral, day 1, F
  Tmax: 2 to 4 h
[9]; female, po, 2 mg/kg, Tmax Range, dogs, 2 mg/kg oral, day 28, F
  Tmax: 1 to 8 h
[9]; female, po, 6.5 mg/kg, dogs, 6.5 mg/kg oral, day 1, F, n = 1
  AUC(0-t): 4700 ng·h/mL
[9]; [12]
  AUC(0-t): 12900 ng·h/mL
  Cmax: 2410 ng/mL
  concentration at 0 h: < 250 ng/mL
  concentration at 1 h: 250 ng/mL
  concentration at 2 h: 1250 ng/mL
  concentration at 4 h: 1850 ng/mL
[9]; [13]
  Cmax: 2570 ng/mL
  concentration at 0 h: < 250 ng/mL
  concentration at 1 h: < 250 ng/mL
  concentration at 2 h: 440 ng/mL
  concentration at 4 h: 2320 ng/mL
  concentration at 8 h: 500 ng/mL
  concentration at 12 h: < 250 ng/mL
